# In publication PMC6934184, “Selective DNA-PKcs inhibition extends the therapeutic index of localized radiotherapy and chemotherapy” (The Journal of Clinical Investigation, 2019):
# Molecular target: T1, MAP2K1 (MEK1) S218D S222D (Homo sapiens, UniProt Q02750, S218D/S222D)
# T1 construct: purchased Thermo Fisher Scientific (Life Technologies) SelectScreen
# Test: SelectScreen LanthaScreen
# Format: binding
# Settings: read-out: % displacement
# Method in brief: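 Percent values come from Thermo SelectScreen profiling of NU5455, combining activity and binding assays. CSF1R was run in Z'LYTE format at Km app ATP, and CAMK1 in Adapta format with ATP listed at 10.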
# T1 sequence (Q02750 whole entry S218D/S222D): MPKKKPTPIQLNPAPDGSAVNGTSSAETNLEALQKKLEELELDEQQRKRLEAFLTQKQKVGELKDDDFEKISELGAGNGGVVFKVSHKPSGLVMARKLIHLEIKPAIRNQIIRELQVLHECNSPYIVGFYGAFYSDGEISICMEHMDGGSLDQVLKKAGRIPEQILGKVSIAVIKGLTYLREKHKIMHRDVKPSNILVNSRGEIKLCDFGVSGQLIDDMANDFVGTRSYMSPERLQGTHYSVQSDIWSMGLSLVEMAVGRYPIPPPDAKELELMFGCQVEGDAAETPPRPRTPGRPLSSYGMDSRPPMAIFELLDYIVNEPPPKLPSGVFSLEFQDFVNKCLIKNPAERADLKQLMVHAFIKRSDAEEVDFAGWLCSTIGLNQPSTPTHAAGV
smiles,measurement,value
CN(C(=O)CN1CCOCC1)c1ccc2sc3c(-c4cccc5c(=O)cc(N6CC7CCC(C6)O7)oc45)cccc3c2c1 [NU5455],inhibition at 1 µM,-0.1%
